{"source": "BindingDB's records for doi:10.1038/nchembio.168", "about": "(University of New Mexico Health Sciences Center, 2009)", "molecular_target": "Estrogen receptor beta (Mus musculus, UniProt O08537)", "sequence (O08537 whole entry)": "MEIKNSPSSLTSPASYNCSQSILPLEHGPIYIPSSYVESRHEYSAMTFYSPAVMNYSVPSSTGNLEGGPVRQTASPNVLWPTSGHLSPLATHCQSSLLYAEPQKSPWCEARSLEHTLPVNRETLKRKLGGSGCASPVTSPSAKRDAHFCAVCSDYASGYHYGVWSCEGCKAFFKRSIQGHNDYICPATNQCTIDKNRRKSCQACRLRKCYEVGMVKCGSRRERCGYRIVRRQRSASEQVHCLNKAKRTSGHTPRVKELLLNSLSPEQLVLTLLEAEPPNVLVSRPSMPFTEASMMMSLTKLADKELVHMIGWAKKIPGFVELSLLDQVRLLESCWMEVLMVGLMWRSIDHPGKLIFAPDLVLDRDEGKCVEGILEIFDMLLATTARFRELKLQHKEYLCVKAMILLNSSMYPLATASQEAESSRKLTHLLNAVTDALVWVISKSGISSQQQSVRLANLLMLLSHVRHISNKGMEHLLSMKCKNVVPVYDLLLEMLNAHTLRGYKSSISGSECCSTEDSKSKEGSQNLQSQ", "test": "Binding affinity to ERbeta receptor in mouse COS7 cells by competitive binding assay"}
{"smiles": "Brc1cc2c(cc1[C@@H]1Nc3ccccc3[C@@H]3C=CC[C@@H]31)OCO2", "values": [{"measurement": "Ki", "value": "> 10", "unit": "µM"}]}
